Data reported in patent US10058550B2, “Methods of treating heart failure” (priority 2015, dated 2018).

What was measured:
[1] = biological target: human APJ receptor (Homo sapiens (Human), UniProt P35414); experiment: biochemical; assay type: biochemical; settings: read-out: Activity hAPJ SPA EC50 IP
Outline: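 Membranes from CHO cells stably expressing cloned human APJ were incubated with WGA SPA beads in 20 mM HEPES pH 7.5, 5 mM MgCl2, 0.1% BSA, 200 mM NaCl and 3 μM GDP. Reaction started with 0.2 nM [35S]GTPγS ± ligands, 90 min at RT. EC50 obtained by non-linear regression as mean of independent experiments.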

[2] = tested on: isolated perfused rat hearts; experiment: Load independent inotropic effects, ex vivo assay (isolated perfused rat hearts, Langendorff); settings: percent change over vehicle
Excerpt: Evidence for Load Independent Inotropic Effects with APJ Agonists using Ex Vivo Assay (Isolated Perfused Rat Hearts)
Naive Sprague Dawley® SD rats (Harlan laboratories (Livermore, Calif. USA)) were anesthetized and hearts were excised followed by cannulation in the Langendorff apparatus (Harvard apparatus, Holliston, Mass. USA) via aorta. […] The pressure of the solution causes the aortic valve to shut and the perfusate is then forced into the ostium and the coronary vessels. This allows the heart to beat for several h. A balloon was inserted into the left ventricle (LV) to measure dP/dtmax (derivative of left ventricular pressure) as an index of cardiac contractility. The APJ agonist was perfused constantly in a dose dependent manner into the heart to examine cardiac contractility.

[3] = tested on: heart failure rat model; experiment: Cardiac contractility in vivo in heart failure rat model (MI rat model); settings: for MI Rat Model dP/dtmax (%): in vivo, heart failure (MI) rat model, acute administration for 30 min; for cardiac contractility as measured by dP/dtmax (derivative of left ventricular pressure): male Lewis rats, heart failure by ligation of left descending coronary artery, ejection fraction <35%, dosed acutely for 30 min
Experimental: Male Lewis rats (Charles River, USA) at 2-3 months of age were used for the study. […] APJ agonists were administered dose dependently acutely for a period of 30 min.

[4] = tested on: heart failure rats; experiment: Cardiac function with APJ small molecule agonists in the presence of ACE inhibitor captopril in heart failure rats in vivo; parameters: species or system rat; settings: captopril alone, acute settings
Excerpt: The interaction between […] (ACE2) and Apelin biology is complicated. To investigate the interaction between the Apelin-APJ and ACE signalling pathways, we examined the improvement in cardiac function with APJ small molecule agonists in the presence of ACE inhibitor captopril in heart failure rats in vivo.

[5] = tested on: isolated perfused rat hearts; experiment: Langendorff isolated perfused rat heart (left ventricular dP/dt); settings: ex vivo naive Sprague Dawley rat hearts, Langendorff apparatus, as a function of concentration
[6] = biological target: APJ/AT1R (Homo sapiens (Human), UniProt P30556+P35414); experiment: IP1 assay (TR-FRET) for allosteric interaction between APJ and AT1R in CHO-K1 APJ/AT1R cells; assay type: cell-based; settings: addition of losartan
Sequence of APJ/AT1R (P35414 whole entry, looked up): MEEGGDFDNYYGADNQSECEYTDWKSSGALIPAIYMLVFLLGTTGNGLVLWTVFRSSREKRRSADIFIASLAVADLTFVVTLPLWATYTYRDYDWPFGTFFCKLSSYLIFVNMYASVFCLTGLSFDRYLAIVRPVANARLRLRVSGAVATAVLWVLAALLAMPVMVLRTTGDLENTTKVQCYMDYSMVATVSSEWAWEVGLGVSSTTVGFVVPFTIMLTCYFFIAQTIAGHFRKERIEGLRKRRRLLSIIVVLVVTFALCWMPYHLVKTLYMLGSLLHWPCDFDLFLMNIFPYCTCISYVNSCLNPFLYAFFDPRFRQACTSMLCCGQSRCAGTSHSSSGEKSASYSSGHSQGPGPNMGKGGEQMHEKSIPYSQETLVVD
Sequence of APJ/AT1R (P30556 whole entry, looked up): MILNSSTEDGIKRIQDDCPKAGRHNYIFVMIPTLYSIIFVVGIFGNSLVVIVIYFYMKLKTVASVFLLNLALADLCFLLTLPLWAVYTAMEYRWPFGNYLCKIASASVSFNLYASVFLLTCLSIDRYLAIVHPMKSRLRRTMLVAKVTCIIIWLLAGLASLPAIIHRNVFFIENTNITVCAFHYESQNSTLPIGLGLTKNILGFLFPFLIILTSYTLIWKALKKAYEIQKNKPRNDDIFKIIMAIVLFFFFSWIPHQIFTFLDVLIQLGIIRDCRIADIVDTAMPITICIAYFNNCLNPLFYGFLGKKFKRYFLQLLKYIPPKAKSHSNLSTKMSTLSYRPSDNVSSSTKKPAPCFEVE
Experimental: Single and double stable recombinant cell lines were generated for human APJ and the AT1R receptor in CHO K1 cells tagged either with FLAG or hemagglutinin (HA) tag. Briefly, the CHO-K1 APJ/AT1R cells were seeded in culture medium of DMEM-F12 and 10% FBS at a density of 15 k/well in a 96 well plate overnight. The next day, the culture medium was replaced with medium containing no serum for 4 hours. The compound AngII at a range of concentrations (1 pM-10 μM) with or without different concentrations of APJ agonists were diluted in stimulation buffer and added to the cell plate. The plate was sealed and incubated for 1 hour. This was followed by addition of IP-d2 conjugate followed by europium cryptate antibody conjugate into the wells. The plate was sealed, followed with incubation for 2 hours at room temperature. Time-resolved fluorescence resonance energy (TR-FRET) at 620 nm and 665 nm was measured after 2 hours with an Envision reader. The signal ratios and delta F were calculated and the amount of IP1 produced was inversely proportional to the TR-FRET ratio, 665/620 nm.

Sequence of human APJ receptor (P35414 whole entry): as the sequence (P35414 whole entry, looked up) above

Compound | EC50 [1] [nM] | Isolated Heart Assay dP/dtmax (%) [2] [%] | Isolated Heart Assay dP/dtmin (%) [2] [%] | cardiac contractility as measured by dP/dtmax (derivative of left ventricular pressure) [3] | left ventricular dP/dtmax (load independent cardiac contractility) [5] | left ventricular dP/dtmin (load independent cardiac relaxation) [5] | further results
COc1cccc(OC)c1-n1c(NS(=O)(=O)[C@H](C)[C@@H](OC)c2ccc(Cl)cn2)nnc1-c1cccnc1 (single isomer, unassigned) [Example 531.0, (1S,2R)-1-(5-chloro-2-pyridinyl)-N-(4-(2,6-dimethoxyphenyl)-5-(3-pyridinyl)-4H-1,2,4-triazol-3-yl)-1-methoxy-2-propanesulfonamide or (1R,2S)-1-(5-chloro-2-pyridinyl)-N-(4-(2,6-dimethoxyphenyl)-5-(3-pyridinyl)-4H-1,2,4-triazol-3-yl)-1-methoxy-2-propanesulfonamide] | 0.2 | 4.1 | 1.9 | – | – | – | –
COc1cccc(OC)c1-n1c(NS(=O)(=O)[C@H](C)[C@@H](OC)c2ncc(Cl)cn2)nnc1-c1cncc(C)c1 (single isomer, unassigned) [Example 557.0] | 0.31 | 17.0 | 20.0 | – | – | – | MI Rat Model dP/dtmax (%) [3]: No effect
C[C@H](CS)C(=O)N1CCC[C@H]1C(=O)O [Captopril, captopril] | – | – | – | – | – | – | contractility [4]: does not show a marked improvement; ejection fraction [4]: does not show a marked improvement
COc1cccc(OC)c1-n1c(NS(=O)(=O)[C@@H](C)[C@H](O)c2ncc(C)cn2)nnc1-c1cccc(C)n1 [Example 99.0, (1R,2S)-N-(4-(2,6-dimethoxyphenyl)-5-(6-methylpyridin-2-yl)-4H-1,2,4-triazol-3-yl)-1-hydroxy-1-(5-methylpyrimidin-2-yl)propane-2-sulfonamide] | 2.3 | – | – | increase in cardiac contractility | increases load independent cardiac contractility | increases load independent cardiac relaxation | –
CCO[C@H](c1ncc(C)cn1)[C@H](C)S(=O)(=O)Nc1nnc(-c2cccnc2)n1-c1c(OC)cccc1OC [Example 109.0, (1R,2S)-N-(4-(2,6-dimethoxyphenyl)-5-(pyridin-3-yl)-4H-1,2,4-triazol-3-yl)-1-ethoxy-1-(5-methylpyrimidin-2-yl)propane-2-sulfonamide] | 0.85 | 15 | 25 | increase in cardiac contractility | increases load independent cardiac contractility | increases load independent cardiac relaxation | MI Rat Model dP/dtmax (%) [3]: 20%
COc1cccc(OC)c1-n1c(NS(=O)(=O)[C@@H](C)[C@H](C)c2ncc(C)cn2)nnc1-c1cncc(C)c1 [Example 263.0, (2S,3R)—N-(4-(2,6-dimethoxyphenyl)-5-(5-methylpyridin-3-yl)-4H-1,2,4-triazol-3-yl)-3-(5-methylpyrimidin-2-yl)butane-2-sulfonamide] | – | – | – | increase in cardiac contractility | increases load independent cardiac contractility | increases load independent cardiac relaxation | –
COc1cccc(OC)c1-n1c(NS(=O)(=O)[C@@H](C)[C@H](O)c2ncc(C)cn2)nnc1-c1cncc(C)c1 [Example 371.0, (1R,2S)—N-(4-(2,6-dimethoxyphenyl)-5-(5-methylpyridin-3-yl)-4H-1,2,4-triazol-3-yl)-1-hydroxy-1-(5-methylpyrimidin-2-yl)propane-2-sulfonamide] | – | – | – | – | increases load independent cardiac contractility | increases load independent cardiac relaxation | –
COc1cccc(OC)c1-n1c(NS(=O)(=O)[C@@H](C)[C@H](C)c2ncc(C)cn2)nnc1-c1cccnc1 [Example 586.0, (2S,3R)—N-(4-(2,6-dimethoxyphenyl)-5-(3-pyridinyl)-4H-1,2,4-triazol-3-yl)-3-(5-methyl-2-pyrimidinyl)-2-butanesulfonamide] | 0.3 | – | – | increase in cardiac contractility | increases load independent cardiac contractility | increases load independent cardiac relaxation | –
Cc1cnc([C@@H](C)[C@H](C)S(=O)(=O)Nc2nnc(-c3cncc(C)c3)n2-c2c(F)cccc2F)nc1 [Example 826.0, (2S,3R)-N-(4-(2,6-difluorophenyl)-5-(5-methyl-3-pyridinyl)-4H-1,2,4-triazol-3-yl)-3-(5-methyl-2-pyrimidinyl)-2-butanesulfonamide, (2R,3S)-N-(4-(2,6-difluorophenyl)-5-(5-methyl-3-pyridinyl)-4H-1,2,4-triazol-3-yl)-3-(5-methyl-2-pyrimidinyl)-2-butanesulfonamide] | – | 6.02 | 5.16 | – | – | – | –
CCCCc1nc(Cl)c(CO)n1Cc1ccc(-c2ccccc2-c2nn[nH]n2)cc1 [losartan] | – | – | – | – | – | – | positive cooperativity induced by APJ small molecule agonists in the presence of AngII [6]: relieved this cooperativity
